Here are results for 46 compounds from ChEMBL document CHEMBL5338758, “Design, Synthesis, and Bioevaluation of Novel MyD88 Inhibitor c17 against Acute Lung Injury Derived from the Virtual Screen” (J Med Chem, 2023).

In data set [1] the test system is J774.A1. As to the kind of experiment: Anti-inflammatory activity in mouse J774.A1 cells assessed as inhibition of LPS-induced IL-6 production at 10 uM pre-stimulated with LPS for 24 hrs followed by compound addition and measured after 0.5 hrs by ELISA analysis relative to control. The format is functional.
The subject of data set [2] is J774.A1. As to the kind of experiment: Anti-inflammatory activity in mouse J774.A1 cells assessed as inhibition of LPS-induced TNF-alpha production at 10 uM pre-stimulated with LPS for 24 hrs followed by compound addition and measured after 0.5 hrs by ELISA analysis relative to control. The format is functional. On the technique in general: ELISA stands for enzyme-linked immunosorbent assay.

Data set [3] has as its system J774.A1. In words: Anti-inflammatory activity in mouse J774.A1 cells assessed as inhibition of LPS-induced IL-6 production pre-stimulated with LPS for 24 hrs followed by compound addition and measured after 0.5 hrs by ELISA analysis. The format is functional, cell-based.
The test system of data set [4] is J774.A1. In words: Anti-inflammatory activity in mouse J774.A1 cells assessed as inhibition of LPS-induced TNF-alpha production pre-stimulated with LPS for 24 hrs followed by compound addition and measured after 0.5 hrs by ELISA analysis. The format is functional, cell-based.
Data set [5] relates to J774.A1. In words: Cytotoxicity against mouse J774.A1 cells assessed as reduction in cell survival incubated for 24 hrs by MTT assay. The format is toxicity, cell-based. Particulars: j774.a1, 24 h. Background: Tetrazolium assays rely on reduction of a dye to a coloured formazan, in cell work by metabolically active cells.
Data set [6] has as its target T1, Myeloid differentiation primary response protein MyD88 (Homo sapiens, UniProt Q99836). In words: Binding affinity to human MyD88 TIR domain by SPR analysis. To be noted: dose 1.19-5.94 10^-5M. In general terms: Surface plasmon resonance follows binding to a sensor surface in real time, without labels.
Data set [7] concerns the target T1, Myeloid differentiation primary response protein MyD88. In words: Binding affinity to human MyD88 TIR domain assessed as equilibrium dissociation constant by SPR analysis.
Data set [8] has as its system J774.A1. In words: Anti-inflammatory activity in mouse J774.A1 cells assessed as suppression of LPS-induced IL-6 production by ELISA analysis. The format is functional, cell-based.

Active and inactive are the calls of the source. The calls are words filed in the database; no cut-off is given here.

Usually inhibition stands for the relative decrease from the control value, in per cent. The IC50 is the concentration needed to halve the response being measured. In general, Kd refers to the concentration at which binding is half-saturated.

T1 sequence (Q99836 whole entry, the tested form may be a part): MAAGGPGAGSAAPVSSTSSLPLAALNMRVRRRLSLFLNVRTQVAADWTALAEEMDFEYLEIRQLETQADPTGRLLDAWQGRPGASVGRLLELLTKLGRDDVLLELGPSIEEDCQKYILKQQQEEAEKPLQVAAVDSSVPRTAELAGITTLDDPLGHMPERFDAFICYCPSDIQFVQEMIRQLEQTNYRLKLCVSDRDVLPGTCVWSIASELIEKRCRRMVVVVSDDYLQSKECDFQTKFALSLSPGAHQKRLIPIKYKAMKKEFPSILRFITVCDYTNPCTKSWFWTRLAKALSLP

As for `CC(=O)N1CCN(Cc2ccc(-c3nc4ccccc4c(=O)[nH]3)cc2)CC1`, the inhibition at 10 µM in data set [1] is 53.7%; in data set [2] it was 11.9%.

For the compound `COc1ccc(-c2cc(-c3ccc(CN4CCN(CCOCCO)CC4)cc3)nc(=O)[nH]2)cc1`, the inhibition at 10 µM in data set [1] was 17.1%; in data set [2], 27.2%.

On to `O=c1[nH]c(-c2ccccc2)nc2cc(CN3CCN(c4ccc([N+](=O)[O-])cc4)CC3)ccc12`, for which the inhibition entry in data set [1] and in data set [2] was “inactive” each time.

Regarding `COCCN1CCN(c2ccc(S(=O)(=O)NCc3ccccn3)cc2[N+](=O)[O-])CC1`, the inhibition at 10 µM turned out to be 50.4% in data set [1] and 11.8% in data set [2].

As to `O=C(Nc1ccccc1)c1ccc(N2CCN(c3ccc([N+](=O)[O-])cc3)CC2)c([N+](=O)[O-])c1`, in data set [1], the inhibition at 10 µM turned out to be 14.9%. Besides, the inhibition result in data set [2] was “inactive”.

`O=[N+]([O-])c1cc(S(=O)(=O)Nc2ccccc2)ccc1N1CCN(CCO)CC1`: the inhibition at 10 µM was found to be 55.6% in data set [1] and 7.89% in data set [2].

For the compound `COc1ccc(CN2CCN(c3ccc(S(=O)(=O)Nc4ccc(OC)nc4)cc3[N+](=O)[O-])CC2)cc1`, the inhibition at 10 µM came out at 63.5% in data set [1] and 27.9% in data set [2].

Consider `COc1ccc(NS(=O)(=O)c2ccc(N3CCN(CCO)CC3)c([N+](=O)[O-])c2)cn1`, for which, in data set [1], the inhibition at 10 µM came out at 22.2%. For the same compound, the inhibition result in data set [2] is “inactive”.

With `COc1ccc(-c2cc(-c3ccc(CN4CCN(c5ccc([N+](=O)[O-])cc5)CC4)cc3)nc(=O)[nH]2)cc1`, the figures for the inhibition at 10 µM in data set [1] and in data set [2] were 35% and 38.7%, respectively.

As for `O=c1nc(-c2ccc(CNc3nc4ccccc4s3)cc2)cc(-c2ccccc2)[nH]1`, the results for the inhibition at 10 µM in data set [1] and in data set [2] were 79.5% and 53.3%, respectively. The IC50 in data set [3] was found to be 0.53 µM; in data set [4] it was 17.7 µM. Besides, the Activity entry in data set [5] is listed as “Non-Toxic”. For the same compound, the outcome in data set [6] was inactive.

Consider `O=C(Nc1cccc2ccccc12)c1ccc(N2CCN(Cc3cccc([N+](=O)[O-])c3)CC2)c([N+](=O)[O-])c1`, for which the results for the inhibition at 10 µM in data set [1] and in data set [2] were 62.2% and 39.8%, respectively.

Regarding `O=c1nc(-c2ccc(CN3CCN(CCOCCO)CC3)cc2)cc(-c2ccccc2)[nH]1`, the inhibition at 10 µM in data set [1] worked out at 19.3%; in data set [2], 14.2%.

In the case of `COCCN1CCN(Cc2ccc(-c3cc(-c4ccc(Br)cc4)[nH]c(=O)n3)cc2)CC1`, the inhibition at 10 µM in data set [1] stood at 46.1%; in data set [2], 41.1%.

`CCCCCNCc1ccc(-c2cc(-c3ccccc3)[nH]c(=O)n2)cc1`: the inhibition at 10 µM in data set [1] was 17.9%; in data set [2], 16.1%.

As for `O=c1nc(-c2ccc(CN3CCN(CCO)CC3)cc2)cc(-c2ccccc2)[nH]1`, the inhibition at 10 µM was 18.2% in data set [1] and 17.9% in data set [2].

Regarding `O=[N+]([O-])c1cccc(CN2CCN(c3ccc(S(=O)(=O)Nc4ccccc4)cc3[N+](=O)[O-])CC2)c1`, the values for the inhibition at 10 µM in data set [1] and in data set [2] were 71.2% and 33.9%, respectively.

For the compound `COCCN1CCN(Cc2ccc(-c3cc(-c4ccccc4)[nH]c(=O)n3)cc2)CC1`, in data set [1], the inhibition result is “inactive”. In data set [2], the inhibition at 10 µM was found to be 25.6%.

With `O=c1nc(-c2ccc(CN3CCN(c4ccc([N+](=O)[O-])cc4)CC3)cc2)cc(-c2ccccc2)[nH]1`, the figures for the inhibition at 10 µM in data set [1] and in data set [2] were 15.7% and 50.6%, respectively.

`O=c1nc(-c2ccc(CN3CCN(CCOCCO)CC3)cc2)cc(-c2ccc(Br)cc2)[nH]1`: the inhibition at 10 µM in data set [1] was 58.4%; in data set [2], 22.6%.

For `CC(=O)N1CCN(Cc2ccc3c(=O)[nH]c(-c4ccccc4)nc3c2)CC1`, in data set [1], the inhibition at 10 µM is 26%. Moreover, the inhibition result in data set [2] was “inactive”.

Regarding `O=c1cc(-c2ccncc2)nc(-c2ccc(CN3CCN(CCO)CC3)cc2)[nH]1`, the Kd in data set [7] is 795 µM. Moreover, the outcome in data set [8] was Active. Further, the inhibition at 10 µM in data set [1] is 33.5%; in data set [2], 8.59%.

As to `O=c1[nH]c(-c2ccc(CN3CCN(c4ccc([N+](=O)[O-])cc4)CC3)cc2)nc2ccccc12`, in data set [1], the inhibition at 10 µM was determined as 44.1%. In data set [2], the inhibition entry is “inactive”.

Turning to `O=C(Nc1ccccc1)c1ccc(N2CCN(Cc3cccc([N+](=O)[O-])c3)CC2)c([N+](=O)[O-])c1`, the inhibition result in data set [1] and in data set [2] was “inactive” throughout.

For the compound `O=[N+]([O-])c1cc(S(=O)(=O)NCc2ccccn2)ccc1N1CCN(CCO)CC1`, the inhibition at 10 µM in data set [1] worked out at 37.8%; in data set [2] it was 6.63%.

With `O=C(Nc1ccccc1)c1ccc(N2CCN(CCO)CC2)c([N+](=O)[O-])c1`, the inhibition at 10 µM in data set [1] came out at 47.5%; in data set [2], 1.01%.

For `COCCN1CCN(Cc2ccc(-c3nc4ccccc4c(=O)[nH]3)cc2)CC1`, the figures for the inhibition at 10 µM in data set [1] and in data set [2] were 34% and 22.6%, respectively.

For `COCCN1CCN(c2ccc(S(=O)(=O)Nc3ccc(OC)nc3)cc2[N+](=O)[O-])CC1`, the inhibition at 10 µM in data set [1] came to 47.3%; in data set [2], 1.16%.

For the compound `CC(=O)N1CCN(Cc2ccc(-c3cc(-c4ccc(Br)cc4)[nH]c(=O)n3)cc2)CC1`, the inhibition result in data set [1] and in data set [2] was “inactive” throughout.

Consider `O=c1nc(-c2ccc(CN3CCN(CCO)CC3)cc2)cc(-c2ccc(Br)cc2)[nH]1`, for which the results for the inhibition at 10 µM in data set [1] and in data set [2] were 7.52% and 29.6%, respectively.

For the compound `O=c1[nH]c(-c2ccc(CN3CCN(CCO)CC3)cc2)nc2ccccc12`, the inhibition at 10 µM in data set [1] came to 57.1%. The inhibition entry in data set [2] was “inactive”.

In the case of `O=c1[nH]c(-c2ccccc2)nc2cc(CN3CCN(CCO)CC3)ccc12`, in data set [1], the inhibition at 10 µM amounted to 46%. In addition, in data set [2], the inhibition result was “inactive”.

With `COCCN1CCN(Cc2ccc(-c3cc(-c4ccc(OC)cc4)[nH]c(=O)n3)cc2)CC1`, the inhibition at 10 µM turned out to be 14.8% in data set [1] and 40.8% in data set [2].

Turning to `O=C(NCc1ccccn1)c1ccc(N2CCN(Cc3ccccc3)CC2)c([N+](=O)[O-])c1`, the inhibition at 10 µM in data set [1] is 36.4%; in data set [2] it was 35.4%.

`O=c1[nH]c(-c2ccccc2)nc2cc(CN3CCN(CCOCCO)CC3)ccc12`: the inhibition at 10 µM in data set [1] is 24.1%. Also, the inhibition entry in data set [2] is “inactive”.

For `O=C(NCc1ccccn1)c1ccc(N2CCN(Cc3cccc([N+](=O)[O-])c3)CC2)c([N+](=O)[O-])c1`, the results for the inhibition at 10 µM in data set [1] and in data set [2] were 33.1% and 27%, respectively.

Take `COCCN1CCN(c2ccc(S(=O)(=O)Nc3ccccc3)cc2[N+](=O)[O-])CC1`: the inhibition at 10 µM in data set [1] amounted to 60.3%; in data set [2] it was 16.9%.

For `COc1ccc(NS(=O)(=O)c2ccc(N3CCN(c4cnc(NC(C)=O)s4)CC3)c([N+](=O)[O-])c2)cn1`, the inhibition at 10 µM in data set [1] is 39.9%; in data set [2], 12.2%.

Take `COc1ccc(NS(=O)(=O)c2ccc(N3CCN(c4ncccn4)CC3)c([N+](=O)[O-])c2)cn1`: the inhibition at 10 µM was 45% in data set [1] and 22.3% in data set [2].

Take `COc1ccc(NS(=O)(=O)c2ccc(N3CCN(Cc4ccccc4)CC3)c([N+](=O)[O-])c2)cn1`: the inhibition at 10 µM in data set [1] stood at 55.1%; in data set [2], 27.7%.

Consider `COCCN1CCN(Cc2ccc3c(=O)[nH]c(-c4ccccc4)nc3c2)CC1`, for which the inhibition at 10 µM in data set [1] came to 29.2%. Besides, the inhibition result in data set [2] was “inactive”.

As to `COCCN1CCN(c2ccc(C(=O)Nc3ccccc3)cc2[N+](=O)[O-])CC1`, the results for the inhibition at 10 µM in data set [1] and in data set [2] were 47.8% and 26.9%, respectively.

Regarding `COc1ccc(-c2cc(-c3ccc(CN4CCN(CCO)CC4)cc3)nc(=O)[nH]2)cc1`, the inhibition at 10 µM was found to be 8.43% in data set [1] and 33.7% in data set [2].

On to `O=C(Nc1ccccc1)c1ccc(N2CCN(Cc3ccc([N+](=O)[O-])cc3)CC2)c([N+](=O)[O-])c1`, for which the inhibition result in data set [1] and in data set [2] was “inactive” in each case.

Take `COc1ccc(NS(=O)(=O)c2ccc(N3CCN(Cc4ccc([N+](=O)[O-])cc4)CC3)c([N+](=O)[O-])c2)cn1`: the inhibition at 10 µM amounted to 71.8% in data set [1] and 37.9% in data set [2]. The IC50 turned out to be 3.4 µM in data set [3] and 14.1 µM in data set [4].

`O=C(NCc1ccccn1)c1ccc(N2CCN(Cc3ccc([N+](=O)[O-])cc3)CC2)c([N+](=O)[O-])c1`: the inhibition at 10 µM in data set [1] came out at 57.6%; in data set [2], 37%.

Turning to `CCCCCNCc1ccc(-c2cc(-c3ccc(OC)cc3)[nH]c(=O)n2)cc1`, the results for the inhibition at 10 µM in data set [1] and in data set [2] were 35.3% and 24.1%, respectively.
